Reference: patent publication US11925638B2, “Pharmaceutical composition comprising diamino heterocyclic carboxamide compound as active ingredient” (ASTELLAS PHARMA INC., priority 2014, dated 2024)

Assays:
[1] = system: erlotinib-resistant HCC827 subcutaneous tumor; assay: Anti-tumor evaluation (in vivo), erlotinib-resistant HCC827 subcutaneous cancer-bearing mouse model; conditions: erlotinib 12.5 mg/kg/day and/or compound A 30 mg/kg/day, QD, po; for tumor volume on the starting day of administration: baseline, measured the day before start
Description: HCC827 cells (EGFR mutation-positive lung cancer cell line) were subcutaneously implanted to a dorsal part of an immunodeficient mouse (CB17/Icr-Prkdcscid/CrlCrlj, male, 4-week-old (Charles River Laboratories Japan, Inc.)) to prepare HCC827 subcutaneous cancer-bearing mice.

PC9 vec. cells = assay: Proliferation inhibition (in vitro), PC9 vec. control cells, CellTiter-Glo; assay type: cell-based; conditions: Homo sapiens, 96 h, 4 days culture
Protocol: The obtained PC9/AXL cells and PC9 vec. cells were inoculated into a 384-well plate, respectively, using an RPMI 1640 medium (Sigma). On the same day, a DMSO solution of the test compound depending on the test concentration or DMSO alone was added thereto, followed by culturing at 37° C. for 4 days in the presence of 5% CO2. Thereafter, the number of cells was measured using a cell count reagent (CellTiter-Glo™ Luminescent Cell Viability Assay (Promega)).

[2] = system: phosphorylated AXL in AXL/PC9 cells; assay: Western blot of phosphorylated AXL in AXL/PC9 cells; assay type: cell-based, human; conditions: compound A at 100 nM, phospho-AXL antibody

SMILES	tumor volume on the starting day of administration [1]	tumor decreasing effect [1]	IC50 (PC9 vec. cells)	AXL phosphorylation [2]	tumor volume after 12 days [1]
C#Cc1cccc(Nc2ncnc3cc(OCCOC)c(OCCOC)cc23)c1 [erlotinib, reference compound]	335.8 mm^3	did not show a tumor decreasing effect	108 nM	–	–
CCc1nc(C(N)=O)c(Nc2ccc(N3CCC(N4CCN(C)CC4)CC3)c(OC)c2)nc1NC1CCOCC1 [compound A, 6-ethyl-3-({3-methoxy-4-[4-(4-methylpiperazin-1-yl)piperidin-1-yl]phenyl}amino)-5-(tetrahydro-2H-pyran-4-ylamino)pyrazine-2-carboxamide]	339.2 mm^3	did not show a tumor decreasing effect	–	completely inhibited	739.2 mm^3
